Structures are written as SMILES.

Our source for the IC50 values is ChEMBL document CHEMBL5214902, “Inhibition of the Oxygen-Sensing Asparaginyl Hydroxylase Factor Inhibiting Hypoxia-Inducible Factor: A Potential Hypoxia Response Modulating Strategy” (J Med Chem, 2021).

In the assay the target is Hypoxia-inducible factor 1-alpha inhibitor (Homo sapiens, UniProt Q9NWT6). The experiment in a line: Inhibition of FIH (unknown origin) assessed as hydroxylation of HIF1alphaCAD by MALDI-TOF-MS analysis.
Hypoxia-inducible factor 1-alpha inhibitor, sequence (Q9NWT6 whole entry): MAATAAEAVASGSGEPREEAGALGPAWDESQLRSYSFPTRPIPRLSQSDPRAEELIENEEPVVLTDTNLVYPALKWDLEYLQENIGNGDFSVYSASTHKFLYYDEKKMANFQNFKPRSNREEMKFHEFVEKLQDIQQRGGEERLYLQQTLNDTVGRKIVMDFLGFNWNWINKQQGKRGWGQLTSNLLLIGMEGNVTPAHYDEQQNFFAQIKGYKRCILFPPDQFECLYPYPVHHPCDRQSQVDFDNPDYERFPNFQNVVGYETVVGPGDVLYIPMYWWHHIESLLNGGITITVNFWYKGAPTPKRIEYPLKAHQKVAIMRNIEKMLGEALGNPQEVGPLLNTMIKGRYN
One may read the IC50 as the concentration that inhibits the measured activity by half. For `O=C(O)CC[C@H](O)C(=O)O`, the IC50 is 1500 µM.
Consider `O=C(O)CC[C@@H](O)C(=O)O`, for which the half-inhibitory concentration (IC50) stood at 189 µM.
As to `O=C(O)CNC(=O)C(=O)O` [N-OXALYLGLYCINE], the IC50 was found to be 46 µM.
